Source: a melting point compilation (Tetko et al.; mined from patent text by program, amines drawn as free bases though some values may be those of a salt)

| SMILES | melting point |
| --- | --- |
| CC(C)(C)OC(=O)N[C@@H](Cc1ccccc1)C(=O)NCCC(=O)OCc1ccccc1 | 93 to 96 °C |
| COC(=O)c1cc(Cl)cc(N)c1O | 65 to 67 °C |
| C#CCN(C)c1c(-c2c(F)cc(F)cc2F)c(OC)nc2ncnn12 | 119 °C |
| CCCCCC(=O)N(Cc1ccccc1)c1nc(C)ns1 | 72 °C |
| O=C(C1=COCCOCCOCCOCCOCCO1)c1cccnc1 | 98 to 100 °C |
| COc1cc(-c2csc(C3CC3)n2)cc2oc(=O)c(C)c(C)c12 | 151 °C |
| CCc1cccc(CC)c1NC(=O)c1c2n(c(C)cc1=O)CCCC2 | 134 to 137 °C |
| CC(=O)Nc1c([N+](=O)[O-])cc(C)c(OC(F)F)c1C | 184 to 185 °C |
| CCN1CCCC1CNC(=O)c1cc([N+](=O)[O-])c(Cl)cc1OC (centres undefined) | 107 to 108 °C |
| C=CCCC(O)=C(C#N)C(=O)Nc1ccc(Cl)cc1 | 138 °C |
| COc1cc(C2=NNC(=O)Cc3cc4c(cc32)OCO4)ccc1N | 147 to 150 °C |
| C=C(c1ccc(N(C)C)cc1)c1ccc(N(C)C)cc1C | 90 to 91 °C |
| O=C(C=Cc1cccc(Br)c1)c1cnc2sc3c(n12)CCCCC3 | 125 to 126 °C |
| CSC(=S)N1CCN(Cc2ccccc2N(C)C)CC1 | 90 to 91 °C |
| CCOC(=O)c1cnc2c(OC)cccc2c1Nc1cscc1C | 162 to 164 °C |
| CCCCCCCCCCCCCCOc1cc(OC)cc(N)c1OCOC | 66 to 67 °C |
| O=C(O)c1ccc(Cl)cc1C(=O)NCCCCc1cccnc1 | 152 to 154 °C |
| CN1C2CCC1CC(O)(c1ccccc1)C2 (centres undefined) | 157 to 159 °C |
| CCCCCCCCCCCCNC(=O)COc1ccc(OC(=O)c2ccccc2)cc1[N+](=O)[O-] | 110 to 111 °C |
| COCCn1nnc2cc3c(=O)n(C(C)Cn4nccn4)nnc3cc2c1=O (centres undefined) | 145 to 146 °C |

| SMILES | melting point |
| --- | --- |
| O=C1CCC2(CC1)CCC(O)CC2 | 65 to 67 °C |
| CCOC(=O)c1ccc(-c2[nH]nc3c2C(=O)c2c(NC(=O)NN4CCC[C@@H]4COC)cccc2-3)s1 | 221 to 222 °C |
| CCCCOC(=O)c1ccc(N2CCN(C)CC2)cc1 | 118 to 120 °C |
| CC(=O)CN1CCN(c2cc3c(cc2F)c(=O)c(C(=O)O)c2n3C(C)S2)CC1 (centres undefined) | 215 to 218 °C |
| N#CC1=Cc2cc(Cl)ccc2OC1 | 124 to 126 °C |
| CCCCCCCCCCCCCCCCCC(=O)OCCCCCCCCCCCCCC | 40 °C |
| CC(C)c1csc(NC(=O)OC(C)(C)C)c1C(=O)O | 205 to 206 °C |
| COc1cc2c(c(OC)c1)C1CCC3(C)C(=O)CCC3C1CC2 (centres undefined) | 132 to 133 °C |
| Cn1c(=O)c2[nH]cnc2n(CCCC(=O)O)c1=O | 220 to 221 °C |
| CC1(C)C(=O)Nc2cc3[nH]c(-c4cnsn4)nc3cc21 | > 300 °C |
| O=C1c2ccccc2C(=O)N1Cc1noc(-c2ncn3c2[C@@H]2CCN2C(=O)c2c-3ccc(F)c2Cl)n1 | 292 to 294 °C |
| N#CC1=C(Nc2ccc(F)cc2)CCC1 | 100 to 102 °C |
| N#Cc1ccc(N2C(=O)N(CCCCCN3C(=O)N(c4ccc(C#N)c(C(F)(F)F)c4)C(=O)C34CC4)C3(CC3)C2=O)cc1C(F)(F)F | 154 to 155 °C |
| O=C(O)CC1(CCCCCCCCCCC2(C(=O)O)CC2)CC1 | 71.9 to 74.3 °C |
| CC(=O)OC1CCC2C3CCC4=CC(=O)CCC4(C)C3(Br)C(F)CC12C (centres undefined) | 172 to 174 °C |
| Cc1cc2c3c(c1)c1c(n3CCNC2)CCC1 | 168 to 170 °C |
| Cc1cc(N2CCN(C(=O)OC(C)(C)C)CC2)ccc1[N+](=O)[O-] | 145 to 146 °C |
| CCCN1C(=O)N2CC(Cc3ccccc3)N=C2c2[nH]c(C(C)OCC)nc21 (centres undefined) | 165 to 170 °C |
| CC(=O)OCc1nc2ccc(Oc3cc(C)c(OC(C)=O)c(C)c3C)nc2n1C | 128 to 129 °C |
| O=C(O)CCCCCn1sc2ccccc2c1=O | 59 to 61 °C |

| SMILES | melting point |
| --- | --- |
| CC(=O)C1=C(O)C(=C(C)Nc2ccccc2N)C(=O)OC1=O | 179 to 181 °C |
| CON=C(c1ccon1)c1ccccc1COc1cc(C)ccc1C | 104 to 108 °C |
| CC1CC(=O)NN=C1c1ccc2c(c1)OCC(=O)N2 (centres undefined) | > 300 °C |
| Nc1c(-c2csc(-c3ccncc3)n2)c(=O)[nH]c2ccc(N3CCCCC3)cc12 | 199 to 202 °C |
| CC(C)(C)c1csc(-c2cc3cc(Cc4nc(C(=O)O)cs4)ccc3o2)n1 | 227 to 230 °C |
| COc1cc(N)c2ncccc2c1OCc1ccc(Cl)cc1 | 122 to 123 °C |
| Nc1c(OCCCBr)cccc1[N+](=O)[O-] | 88 to 89 °C |
| CCCCCCCCCCCCCCCCCC(=O)c1ccc(C2=NC(C)(C)CO2)c(Cl)c1 | 57 to 60 °C |
| O=C(NCCc1cncn1CCc1ccccc1)[C@H]1CN(Cc2ccccc2)CCN1C(=O)NC1CCCCC1 | 64.4 °C |
| CCCCc1ncc(C=O)n1Cc1ccc(C(=O)OC)cc1 | 62 to 64 °C |
| COn1c(C(F)(F)F)nc2ncc(Cl)cc21 | 91 to 92 °C |
| COc1c(-c2cc3c(s2)CCC/C3=N\OCc2cccnc2)ccc2c(=O)c(C(=O)O)cn(C3CC3)c12 | 181 to 183 °C |
| COc1cc2nc(N3CCN(c4ccnc(N5CCOCC5)n4)CC3)nc(N)c2cc1OC | 232 to 233 °C |
| Nc1cc(OCCCl)ccc1F | 42 to 43 °C |
| COc1ccc(OCCCCCCI)cc1 | 64 to 66 °C |
| COc1ccc(C(=O)C(=O)c2cccnc2)cc1 | 70 to 72 °C |
| Brc1ccc(C2=NOCCS2)cc1 | 114 to 115 °C |
| CCCCOc1ccc(S(=O)(=O)C2(C(=O)NO)CCN(C)CC2)cc1 | 118 °C |

Second part, the compound after the results:

| melting point | SMILES |
| --- | --- |
| 66 to 72 °C | COCCN(C)C(=O)Nc1c(C(=O)c2ccccc2)[nH]c2cc(Cl)ccc12 |
| 159 to 160 °C | CCC(=O)NCCc1ccc(OCc2ccccc2)c(OCc2ccccc2)c1CC |
| 166 to 167 °C | CCCN(Cc1cccc(C(=N)N)c1)C(=O)Nc1ccc(-c2ccccc2S(N)(=O)=O)cc1 |
| 182 to 184 °C | COc1ccc(/C(C)=C\c2ccc(C(=O)O)cc2)cc1C(C)(C)C |
| 100 to 103 °C | CC1(O)OC(=O)c2ccc(Oc3ccc(C(F)(F)F)cc3Cl)cc21 (centres undefined) |
| 103 to 105 °C | COc1ccc(C(=O)c2ccc(SCc3ccccc3)s2)cc1 |
| 165 to 167 °C | O=c1[nH][nH]c(C(F)(F)F)c1Cc1ccc2ccccc2c1 |
| 106 to 107 °C | COCOc1nn(-c2ccccc2)cc1C=O |
| 175 to 177 °C | CN1Cc2ccccc2C(OCC(O)Cn2ccnc2)c2c1nc1ccc(Br)cc1c2Cl (centres undefined) |
| 131 to 132 °C | CSc1ncc(CNc2ccccc2Cl)c(Nc2ccccc2)n1 |
| 145 to 146 °C | CC1(C)C(=O)C(c2ccccc2)=C1c1ccc(S(C)(=O)=O)cc1 |
| 165 °C | CCc1ccc2c(c1)C=Cc1cc(C)ccc1C2c1cn(Cc2ccc(C(=O)O)o2)c(=O)[nH]c1=S (centres undefined) |
| 199 to 201 °C | CC(C)COc1ccc2c(c1)c(=O)n(CCC(=O)O)c(=O)n2Cc1c[nH]c2ccccc12 |
| 92 to 93 °C | CC(C)(C)c1cc(P(c2ccccc2)c2ccccc2)cc(C(C)(C)C)c1O |
| 158 to 160 °C | CC(C)c1cccc(C(C)C)c1NC(=O)CN1CC2(CCCCC2)N(c2ccccc2)CC1=O |
| 212 to 213 °C | Cc1oc(-c2ccccc2)nc1C(=O)c1cc2cc(Br)ccc2o1 |
| 140 °C | Cc1cccc(NC(=O)NCC(=O)N(CC(=O)OCc2ccccc2)c2ccccc2)c1 |
| 143 to 145 °C | COc1cccc2c1nc(C)c1ccn(-c3ccccc3C)c12 |
| 169 to 170 °C | CNS(=O)(=O)CCc1ccc2[nH]cc(CCCN3C(=O)c4ccccc4C3=O)c2c1 |
| 150 °C | CC(CN(C)C)Oc1ccccc1CC(=O)N1CC2C(C1)C(c1ccccc1)(c1ccccc1)CCS2=O (racemic) |
| 83 to 85 °C | CC(C)(C)CCOc1c(-c2ccc(S(C)(=O)=O)cc2)cnn(CC(F)(F)F)c1=O |

| melting point | SMILES |
| --- | --- |
| 209 to 211 °C | CC(C)(C)CC(C)(C)c1cc(-c2cc(C(C)(C)CC(C)(C)C)cc(-n3nc4ccccc4n3)c2O)c(O)c(-n2nc3ccccc3n2)c1 |
| 200 to 201 °C | CCOC(=O)c1ccc(-c2ccc(N(c3ccc(-c4ccccc4)cc3)c3ccc(-c4ccc(C(=O)OCC)cc4)cc3)cc2)cc1 |
| 127 to 129 °C | O=[N+]([O-])c1cc(F)ccc1S(=O)(=O)c1ccccc1 |
| 182 to 183 °C | COC(=O)c1ccc(-c2nc(-c3ccc(C(F)(F)F)cc3)co2)cc1 |
| 115 to 116 °C | Cc1c(C)n(Cc2ccccc2)c2ncnc(Cl)c12 |
| 193 to 194 °C | CS(=O)(=O)c1ccc2c([N+](=O)[O-])cc3c(c2c1)C(CCl)CN3 (centres undefined) |
| 109 to 110 °C | CC(=O)Oc1c(C)c2c(c3ccccc13)OCC2c1ccc(C(C)C)cc1 (centres undefined) |
| 274 to 275 °C | COc1cccc2c(=O)cc(C=Cc3ccc(C#N)cc3)oc12 |
| 194 to 197 °C | O=C(CCn1ccnc1)c1c[nH]c2ccccc12 |
| 147 to 149 °C | O=c1c2c(Cl)cc(Cl)cc2n(Cc2ccccc2)c(=O)n1CC1CCCCC1 |
| 163 to 165 °C | O=C1c2ccccc2C(=O)N1OCc1c[nH]cn1 |
| 107 to 109 °C | CC(Cc1ccc(Oc2cc(N3CCN(Cc4ccccc4)CC3)ncn2)cc1)(Oc1ccccc1)C(=O)O (centres undefined) |
| 147 to 150 °C | CS(=O)(=O)Nc1ccc(C(N)=O)cc1Oc1ccc(F)cc1F |
| 368 to 370 °C | Cc1ccc(-n2nc(O)c3[nH]c4cc(Cl)ccc4c(=O)c3c2=O)cc1 |
| 147 to 148 °C | C=CCOc1nc2c(c3ccccc13)c1cc(Cl)ccc1n2C |
| 202 to 203 °C | CS(=O)(=O)c1ccc(-c2c(-c3ccc(F)cc3)c(C(F)(F)F)nn2-c2ccccc2)cc1 |
| 160 to 164 °C | Cc1c(-c2ccc3cn[nH]c3c2)cc(Nc2ccc(N3CCOCC3)cn2)c2nccn12 |
| 218 to 220 °C | C(=Cc1ccc(-c2nc(-c3ccc(C=Cc4ccccc4)cc3)n(-c3ccccc3)n2)cc1)c1ccccc1 |
| 181 to 183 °C | O=C(NNS(=O)(=O)c1ccccc1)c1ccc2c(c1)CCO2 |
| 105 to 109 °C | Cn1cc(C2=C(c3cn(C)c4cc([N+](=O)[O-])ccc34)C(=O)N(COP(=O)(OCc3ccccc3)OCc3ccccc3)C2=O)c2ccccc21 |
